Target: T1, PDE7 (type VII phosphodiesterase) (Homo sapiens, UniProt Q13946)
T1 construct: endogenous in cells; host or cells: MOLT-4 (ATCC CRL-1582), soluble fraction, HiTrapQ anion-exchange fraction
Assay: PDE7 inhibiting activity (3H-cAMP hydrolysis, active fraction from MOLT-4 cells)
Assay type: biochemical
Conditions: PDE7 fraction from MOLT-4 cells, 0.064 μM cAMP, 10 μM rolipram present, 2 hours at 25° C.; read-out: IC50 values for phosphodiesterase inhibiting activities (PDE7)
Method in brief: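 PDE7 from MOLT-4 cell soluble fraction, HiTrapQ NaCl-gradient purified. Compounds reacted 2 h at 25° C in 20 mM tris-HCl pH 7.5, 1 mM MgCl2, 0.1 μCi 3H-cAMP (0.064 μM cAMP), 10 μM rolipram, 5′-nucleotidase; QAE-Sephadex-separated supernatant counted.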

T1 sequence (Q13946 whole entry): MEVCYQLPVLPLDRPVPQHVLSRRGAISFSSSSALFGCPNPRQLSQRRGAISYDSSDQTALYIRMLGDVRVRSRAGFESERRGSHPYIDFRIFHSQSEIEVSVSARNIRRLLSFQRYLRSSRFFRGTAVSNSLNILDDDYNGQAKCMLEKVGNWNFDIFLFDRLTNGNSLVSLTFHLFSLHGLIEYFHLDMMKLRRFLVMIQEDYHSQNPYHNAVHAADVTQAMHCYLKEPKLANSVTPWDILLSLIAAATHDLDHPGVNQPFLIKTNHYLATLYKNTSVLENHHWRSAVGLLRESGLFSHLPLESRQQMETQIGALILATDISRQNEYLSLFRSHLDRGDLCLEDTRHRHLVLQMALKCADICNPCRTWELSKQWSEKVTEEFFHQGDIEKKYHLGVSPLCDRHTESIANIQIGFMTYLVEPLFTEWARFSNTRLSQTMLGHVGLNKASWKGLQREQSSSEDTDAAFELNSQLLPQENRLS

IC50 [nM]	SMILES
≤ 1000	CNS(=O)(=O)c1ccc(-c2nc3c(c(C4CCCCC4)nn3C)c(=O)[nH]2)c(OC)c1 [Example 204, 4-(3-Cyclohexyl-1-methyl-4-oxo-4,5-dihydro-1H-pyrazolo[3,4-d]pyrimidin-6-yl)-3-methoxy-N-methylbenzenesulfonamide]
≤ 1000	COc1cc(C2CCN(C)CC2)ccc1-c1nc2c(C)nn(C3CCCCC3)c2c(=O)[nH]1 [Example 124, 1-Cyclohexyl-5-[2-methoxy-4-(1-methyl-4-piperidinyl)phenyl]-3-methyl-1,6-dihydro-7H-pyrazolo[4,3-d]pyrimidin-7-one]

Source: patent US7268128B2, “1,3,5-trisubstituted-5-phenyl and 5-pyridyl pyrazolopyrimidinone derivatives having PDE7 inhibiting action” (Ausbio Pharma Co., Ltd., priority 2001, dated 2007)
